Consider three molecules from paper PMC9101087, “A Sensitive LC-MS/MS Method for the Simultaneous Determination of Two Thia-Analogous Indirubin N-Glycosides and Indirubin-3′-Monoxime in Plasma and Cell Culture Medium” (Molecules, 2022).

The nature of data set [1]: Storage stability in human plasma, LC-MS/MS after plasma precipitation. The class given is in vitro ADME. To be noted: for Stability 4 °C / Stability AS (autosampler) / Stability −20 °C / Stability BT (benchtop): 24 h; for Stability FT (freeze-thaw): freeze-thaw cycles; for Stability BT (benchtop): room temperature. The method, then:
(§1) To assess stability, low and high concentrations of all analytes were subjected to different storage conditions. […] For determination of long-term stability, samples were stored in either plasma or DMEM at –80 °C for 90 and 91 days, respectively. To measure short-term stability, samples were stored at room temperature, in an autosampler, at 4 °C, and at –20 °C for 24 h. In addition, freeze-thaw cycles were performed according to FDA guidance for the standard solutions. For comparison, at least three freshly prepared samples were prepared for each concentration level. With the exception of autosampler stability, the internal standard was always added to all samples before sample processing was started.
After mixing the 1.5 µM internal standard and the plasma sample, protein precipitation was commenced. Next, 190 µL of acetonitrile and 50 µL of 0.5 M sulfuric acid buffer were added. The tubes were then shaken at 1400 rpm for 5 min followed by centrifugation at 14,000 rpm for 5 min. Subsequently, 195 µL of the supernatant was transferred to an LC tube and analyzed.
(§2) To assess stability, low and high concentrations of all analytes were exposed to different storage conditions. To determine long-term stability, samples were stored in either plasma or DMEM at −80 °C for 90 and 91 days, respectively. To determine short-term stability, samples were stored for 24 h on the bench at room temperature, in the autosampler, at 4 °C, and at −20 °C. In addition, freeze-thaw cycles were performed for the standard solutions according to FDA guidance. At least three freshly prepared samples per concentration level were prepared for comparison. With the exception of the stability test in the autosampler, the internal standard was always added to all samples before sample processing was started. However, to avoid concentration fluctuations due to possible degradation of the analytes, stock solutions were prepared twice a week and stored at −20 °C. Each storage condition was examined in the dark. For all conditions studied, n = 3–6 replicates were prepared.

The nature of data set [2]: Storage stability in human plasma, LC-MS/MS after plasma extraction. The format is in vitro ADME. To be noted: for Stability 4 °C / Stability AS (autosampler) / Stability −20 °C / Stability BT (benchtop): 24 h; for Stability FT (freeze-thaw): freeze-thaw cycles; for Stability −80 °C 90 d: long-term freezing; for Stability BT (benchtop): room temperature. On the procedure:
as §1
(§3) Liquid-liquid extraction was performed identically for plasma and DMEM samples. After addition of the 1.0 µM internal standard, 50 µL of 0.8 M alkaline carbonate buffer was added. The extraction was performed once with 890 µL ethyl acetate. Tubes were then shaken for 10 min at 1400 rpm using a Thermomixer 5436 (Eppendorf AG, Hamburg, Germany) followed by centrifugation for 5 min at 14,000 rpm using a Centrifuge 5415 C (Eppendorf AG, Hamburg, Germany). Subsequently, 850 µL of the supernatant was transferred to a new tube and evaporated to dryness for 35 min at 35 °C (8 min heating time) using a SpeedVac SPD130DLX (Thermo Fisher Scientific, Asheville, NC, USA). Reconstitution was performed with 200 µL of a acetonitrile/water/H2SO4 [3/0.5/0.5] mixture, shaken at 1400 rpm for 5 min, and centrifuged again at 14,000 rpm for 5 min. Finally, 155 µL of the sample was transferred to an LC vial and analyzed.
as §2

Data set [3] can be described thus: Storage stability in DMEM, LC-MS/MS after DMEM extraction. The format is physicochemical. Particulars: for Stability 4 °C / Stability AS (autosampler) / Stability −20 °C / Stability BT (benchtop): 24 h; for Stability FT (freeze-thaw): freeze-thaw cycles; for Stability −80 °C 91 d: long-term freezing; for Stability BT (benchtop): room temperature. The method, then:
as §1
Regarding the medium, validation procedures were performed with high-glucose DMEM supplemented with 100 U/mL penicillin and 100 μg/mL streptomycin, but not with FBS. With the exception of selectivity, where both media (GlutaMAX™-I or UltraGlutamine^TM I supplement) were tested, only Gibco™ DMEM with GlutaMAX™-I was used for all other analytical procedures.
as §3, §2

Data set [4] in a line: Storage stability in human plasma, LC-MS/MS after plasma precipitation. The class given is in vitro ADME. Particulars: long-term freezing.
For a further data set, the system named is A375 (melanoma). Put plainly: WST-1 cell viability assay, 48-h incubation. The format is cell-based, human. Particulars: A375, WST-1, 48 h. The method, then: (§4) To test the biological activity of the thia-analogous indirubin N-glycosides that are the focus of the present work, the effects of KD87 and KD85 and their non-glycosylated parent compound KD88 on the viability of various tumor cell lines were initially investigated. The corresponding analyses were performed using the cell lines A375 (melanoma), A431 (skin squamous cell carcinoma), A549 (non-small cell lung carcinoma), U251MG (glioblastoma), and U138MG (glioblastoma).
(§5) Figure 2 Effect of increasing concentrations of KD87 (A), KD85 (B), and KD88 (C) on viability of various cancer cells. A375 (melanoma; black columns), A431 (skin squamous cell carcinoma; dark grey columns), A549 (non-small cell lung carcinoma; grey columns), U251MG (glioblastoma; light grey columns), or U138MG (glioblastoma; white columns) were incubated for 48 h with the appropriate compounds or vehicle followed by determination of cell viability by WST-1 assay. Percent control represents comparison with vehicle-treated cells (100%) in the absence of test substance. Values are mean ± standard error of the mean (SEM) of n = 15 in all panels, except n = 14 for A375 and A431 cells in panel B and n = 14–15 for A375 cells in panel C, from four (A375, A431) or five (A549, U251MG, U138MG) independent experiments. * p ≤ 0.05, ** p ≤ 0.01, *** p ≤ 0.001, **** p ≤ 0.0001 vs. vehicle control; one-way ANOVA with Dunnett’s post hoc test.
(§6) The human melanoma cell line A375 (#300110; RRID:CVCL_0132) as well as the human skin epidermoid carcinoma cell line A431 (#300112; RRID:CVCL_0037) were purchased from CLS Cell Lines Service GmbH (Eppelheim, Germany). The human glioblastoma cell line U251MG (#09063001; RRID:CVCL_0021) was from Sigma-Aldrich Corporation. The human glioblastoma cell line U138MG (#ACC 291; RRID: CVCL_0020) and the human lung carcinoma cell line A549 (#ACC 107, RRID:CVCL_0023) were purchased from DSMZ (Deutsche Sammlung von Mikroorganismen und Zellkulturen GmbH, Braunschweig, Germany).
(§7) Cells were cultured in high-glucose DMEM (with GlutaMAX™-I: A375, A431; with UltraGlutamine^TM I: A549, U251MG, U138MG) supplemented with 10% heat-inactivated FBS, 100 U/mL penicillin, and 100 μg/mL streptomycin and grown in a humidified incubator at 37 °C and 5% CO2. For viability analyses, cells were seeded in 96-well plates at a density of 5000 cells per well in DMEM containing 10% heat-inactivated FBS and cultured for 24 h. All cell experiments with the specific substances were performed in serum-free DMEM supplemented with 100 U/mL penicillin and 100 μg/mL streptomycin, applied after washing the cells with DPBS. The test substances were dissolved in DMSO. The final concentration of DMSO in the incubation media of test substance- and vehicle-treated cells was 1% (v/v).
(§8) After completion of the 48-h incubation, WST-1 reagent (Sigma, Taufkirchen, Germany) was added to the cells to achieve a final dilution of 1:10, and the cells were incubated for an additional 20 min before absorbance was measured at 450 nm, reference wavelength […], using a microplate reader.

Data set [5] concerns A431 (skin squamous cell carcinoma). Put plainly: WST-1 cell viability assay, 48-h incubation. The format is cell-based, human. To be noted: A431, WST-1, 48 h. On the procedure: as §4, §5, §6, §7, §8
The test system of data set [6] is A549 (non-small cell lung carcinoma). The experiment in a line: WST-1 cell viability assay, 48-h incubation. The format is cell-based, human. Particulars: A549, WST-1, 48 h. The method, then:
as §4, §5, §6, §7, §8

In another data set the test system is U138MG (glioblastoma). Put plainly: WST-1 cell viability assay, 48-h incubation. The format is cell-based, human. Particulars: WST-1, 48 h. The method, then: as §4, §5, §6, §7, §8
The subject of a further data set is U251MG (glioblastoma). The experiment in a line: WST-1 cell viability assay, 48-h incubation. The class given is cell-based, human. Particulars: WST-1, 48 h. The method, then:
as §4, §5, §6, §7, §8

For a further data set, the system named is A549 lung cancer cells. To be noted: sulforhodamine B assay, incubation 24 h longer than the 48-h assay; cited from earlier work.
Data set [7] concerns human fibrosarcoma cell line HT1080. Particulars: sulforhodamine B assay, incubation 24 h longer than the 48-h assay; cited from earlier work.
For data set [8], the system named is human gastric (SNU-638) cancer cells. To be noted: sulforhodamine B assay, incubation 24 h longer than the 48-h assay; cited from earlier work.
Data set [9] concerns human colon (Col2) cancer cells. To be noted: sulforhodamine B assay, incubation 24 h longer than the 48-h assay; cited from earlier work.
Data set [10] relates to human breast cancer cells (MCF-7). To be noted: sulforhodamine B assay, incubation 24 h longer than the 48-h assay; cited from earlier work.
In the next data set the test system is leukemia cells (HL60). Particulars: sulforhodamine B assay, incubation 24 h longer than the 48-h assay; cited from earlier work.

Take `O=C1Nc2ccccc2/C1=C1/Nc2ccccc2/C1=N\O` [I3M, indirubin-3′-monoxime]: the “Stability 4 °C” value in [1] (2.0 nM) was determined as 89.7 ± 1.5%; in [1] (167 nM), 91.5 ± 3.3%; in [2] (3.0 nM) it was 95.9 ± 8.7%; in [2] (250 nM), 94.6 ± 2.2%; in data set [3] (3.0 nM), 113.8 ± 6.6%; in [3] (40 nM), 100.4 ± 1.3%. Besides, the “Stability AS (autosampler)” value was 124.3 ± 9.5% in data set [1] (2.0 nM); 112.0 ± 6.8% in [1] (167 nM); 68.0 ± 1.5% in [2] (3.0 nM); 58.5 ± 1.3% in data set [2] (250 nM); 65.0 ± 1.3% in data set [3] (3.0 nM); 63.6 ± 0.3% in data set [3] (40 nM). The “Stability −20 °C” value is recorded as 95.2 ± 3.7% in data set [1] (2.0 nM); 93.7 ± 7.7% in data set [1] (167 nM); 93.8 ± 1.9% in [2] (3.0 nM); 96.5 ± 1.6% in data set [2] (250 nM); 92.0 ± 1.1% in data set [3] (3.0 nM); 93.1 ± 2.5% in data set [3] (40 nM). For the same molecule, the “Stability FT (freeze-thaw)” value in data set [1] (2.0 nM) is on record as 104.1 ± 5.5%; in data set [1] (167 nM) it was 99.7 ± 7.4%; in data set [2] (3.0 nM), 94.9 ± 4.0%; in [2] (250 nM), 99.7 ± 1.6%; in data set [3] (3.0 nM), 100.0 ± 5.7%; in [3] (40 nM), 99.5 ± 3.2%. Moreover, the “Stability BT (benchtop)” value is listed as 100.1 ± 9.0% in [1] (2.0 nM); 98.6 ± 4.3% in [1] (167 nM); 102.2 ± 1.8% in [2] (3.0 nM); 96.3 ± 7.3% in data set [2] (250 nM); 66.8 ± 2.7% in data set [3] (3.0 nM); 59.4 ± 2.4% in data set [3] (40 nM). Moreover, the “Stability −80 °C 90 d” value in [2] (3.0 nM) amounted to 96.2 ± 7.2%; in data set [2] (250 nM), 100.6 ± 3.0%. Moreover, the “Stability −80 °C 91 d” value in [3] (3.0 nM) stood at 90.6 ± 4.5%; in [3] (40 nM), 99.0 ± 2.7%; in data set [4] (2.0 nM) it was 101.0 ± 9.0%; in [4] (167 nM), 103.0 ± 3.6%.
Take `O=C1Nc2ccccc2/C1=C1/Sc2ccccc2C1=O` [KD88, 3-[3′-oxo-benzo[b]thiophene-2′-(Z)-ylidene]-oxindole]: the “cytotoxic potential (in words)” value (in the data set with A375 (melanoma); in [5]; in [6]; in the data set on U138MG (glioblastoma); in the data set on U251MG (glioblastoma)) was “no cytotoxic potential” throughout.
For `O=C1Nc2ccccc2/C1=C1/Nc2ccccc2C1=O` [indirubin], the IC50 in the data set on A549 lung cancer cells was 31 µM; in data set [7], 42 µM; in data set [8], above 100 µM; in data set [9] it was above 100 µM; in data set [10] it was above 100 µM; in the data set with leukemia cells (HL60), above 100 µM.
